Data: patent US20170037028A1 (BAYER PHARMA AKTIENGESELLSCHAFT, priority 2013, published 2017)
pIC50: −log10 of the molar value.

Molecular target: T1, GLUT1 (Homo sapiens, UniProt P11166)
T1 sequence (P11166 1-492): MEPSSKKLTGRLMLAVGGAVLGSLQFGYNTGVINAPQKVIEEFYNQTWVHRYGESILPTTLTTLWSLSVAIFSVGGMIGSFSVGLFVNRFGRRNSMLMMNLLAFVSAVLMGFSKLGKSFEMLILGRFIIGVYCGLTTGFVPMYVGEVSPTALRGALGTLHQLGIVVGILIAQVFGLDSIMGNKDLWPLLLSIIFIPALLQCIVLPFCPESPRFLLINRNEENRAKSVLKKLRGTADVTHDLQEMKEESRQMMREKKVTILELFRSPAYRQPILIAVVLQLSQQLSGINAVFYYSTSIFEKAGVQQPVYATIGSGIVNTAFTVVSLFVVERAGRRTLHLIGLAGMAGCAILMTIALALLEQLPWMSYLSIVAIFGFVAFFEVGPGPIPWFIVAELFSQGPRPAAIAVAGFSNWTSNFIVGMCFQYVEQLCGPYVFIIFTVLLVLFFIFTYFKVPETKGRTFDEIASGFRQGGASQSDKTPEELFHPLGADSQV
Test: Indirect measurement of GLUT1 activity by quantification of intracellular ATP levels (glucose induced ATP increase)
Type: cell-based
Set-up: endogenous in cells; host or cells: DLD1 or CHO-K1
Conditions: read-out: IC50 regarding glucose induced ATP increase (GLUT1 inhibition)
How it was run: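 DLD1 or CHO-K1 cells were starved overnight in glucose-free medium with 1% FCS, then combined with an oxidative phosphorylation inhibitor. GLUT1 activity was read as glucose-induced ATP increase, GLUT2 as fructose-induced. Intracellular ATP was quantified by CellTiter-Glo luminescence.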

## COc1cc(C(=O)Nc2c(C)nn(Cc3ccccc3)c2C)c2ccccc2n1 [Example 65, N-(1-benzyl-3,5-dimethyl-1H-pyrazol-4-yl)-2-methoxyquinoline-4-carboxamide]
  pIC50: 6.88

## Cc1nn(Cc2ccccn2)c(C)c1NC(=O)c1cc(C(F)(F)F)nc2c(Cl)cc(Cl)cc12 [Example 66, 6,8-dichloro-N-[3,5-dimethyl-1-(pyridin-2-ylmethyl)-1H-pyrazol-4-yl]-2-(trifluoromethyl)quinoline-4-carboxamide]
  pIC50: 6.87

## COc1cccc(Cn2nc(C)c(NC(=O)c3cc(C(F)(F)F)nc4c(Cl)cc(Cl)cc34)c2C)c1 [Example 67, 6,8-dichloro-N-[1-(3-methoxybenzyl)-3,5-dimethyl-1H-pyrazol-4-yl]-2-(trifluoromethyl)quinoline-4-carboxamide]
  pIC50: 6.84

## Cc1nn(Cc2ccccc2C#N)c(C)c1NC(=O)c1cc(C(F)(F)F)nc2c(Cl)cc(Cl)cc12 [Example 68, 6,8-dichloro-N-[1-(2-cyanobenzyl)-3,5-dimethyl-1H-pyrazol-4-yl]-2-(trifluoromethyl)quinoline-4-carboxamide]
  pIC50: 6.83

## CCc1cc(C(=O)Nc2c(C)nn(Cc3ccc(F)cc3)c2C)c2ccccc2n1 [Example 69, 2-ethyl-N-[1-(4-fluorobenzyl)-3,5-dimethyl-1H-pyrazol-4-yl]quinoline-4-carboxamide]
  pIC50: 6.79

## Cc1nn(Cc2ccccn2)c(C)c1NC(=O)c1cc(C(F)(F)F)nc2ccc(Br)cc12 [Example 70, 6-bromo-N-[3,5-dimethyl-1-(pyridin-2-ylmethyl)-1H-pyrazol-4-yl]-2-(trifluoromethyl)quinoline-4-carboxamide]
  pIC50: 6.76

## Cc1nn(Cc2cccc(C#N)c2)c(C)c1NC(=O)c1cc(C(F)(F)F)nc2ccc(Br)cc12 [Example 71, 6-bromo-N-[1-(3-cyanobenzyl)-3,5-dimethyl-1H-pyrazol-4-yl]-2-(trifluoromethyl)quinoline-4-carboxamide]
  pIC50: 6.76

## Cc1nn(Cc2cccc(F)c2)c(C)c1NC(=O)c1cc(C(F)(F)F)nc2ccc(Br)cc12 [Example 72, 6-bromo-N-[1-(3-fluorobenzyl)-3,5-dimethyl-1H-pyrazol-4-yl]-2-(trifluoromethyl)quinoline-4-carboxamide]
  pIC50: 6.75

## Cc1ccc2nc(C)cc(C(=O)Nc3c(C(F)(F)F)nn(Cc4ccc(F)cc4)c3C)c2c1 [Example 73, N-[1-(4-fluorobenzyl)-5-methyl-3-(trifluoromethyl)-1H-pyrazol-4-yl]-2,6-dimethylquinoline-4-carboxamide]
  pIC50: 6.75

## Cc1nn(Cc2ccccc2F)c(C)c1NC(=O)c1cc(C(F)(F)F)nc2ccc(Br)cc12 [Example 74, 6-bromo-N-[1-(2-fluorobenzyl)-3,5-dimethyl-1H-pyrazol-4-yl]-2-(trifluoromethyl)quinoline-4-carboxamide]
  pIC50: 6.74

## COc1ccc2nc(O)cc(C(=O)Nc3c(C)nn(Cc4ccc(F)cc4)c3C)c2c1 [Example 75, N-[1-(4-fluorobenzyl)-3,5-dimethyl-1H-pyrazol-4-yl]-2-hydroxy-6-methoxyquinoline-4-carboxamide]
  pIC50: 6.74

## COc1cc(C(=O)Nc2c(C)nn(Cc3cccc(C)c3)c2C)c2ccccc2n1 [Example 76, N-[3,5-dimethyl-1-(3-methylbenzyl)-1H-pyrazol-4-yl]-2-methoxyquinoline-4-carboxamide]
  pIC50: 6.73

## COc1cc(C(=O)Nc2c(C)nn(Cc3ccccc3F)c2C)c2ccccc2n1 [Example 77, N-[1-(2-fluorobenzyl)-3,5-dimethyl-1H-pyrazol-4-yl]-2-methoxyquinoline-4-carboxamide]
  pIC50: 6.69

## Cc1nn(Cc2ccc(F)cc2)c(C)c1NC(=O)c1cc(C#N)nc2ccccc12 [Example 78, 2-cyano-N-[1-(4-fluorobenzyl)-3,5-dimethyl-1H-pyrazol-4-yl]quinoline-4-carboxamide]
  pIC50: 6.65

## Cc1nn(Cc2ccc(F)cc2)c(C)c1NC(=O)c1cc(C2CC2)nc2ccc(C(F)(F)F)cc12 [Example 79, 2-cyclopropyl-N-[1-(4-fluorobenzyl)-3,5-dimethyl-1H-pyrazol-4-yl]-6-(trifluoromethyl)quinoline-4-carboxamide]
  pIC50: 6.65

## COc1cc(C(=O)Nc2c(C)nn(Cc3ccccc3C#N)c2C)c2ccccc2n1 [Example 80, N-[1-(2-cyanobenzyl)-3,5-dimethyl-1H-pyrazol-4-yl]-2-methoxyquinoline-4-carboxamide]
  pIC50: 6.64

## COc1cccc(Cn2nc(C)c(NC(=O)c3cc(OC)nc4ccccc34)c2C)c1 [Example 81, 2-methoxy-N-[1-(3-methoxybenzyl)-3,5-dimethyl-1H-pyrazol-4-yl]quinoline-4-carboxamide]
  pIC50: 6.64

## Cc1cccnc1Cn1nc(C)c(NC(=O)c2cc(C(F)(F)F)nc3c(Cl)cc(Cl)cc23)c1C [Example 82, 6,8-dichloro-N-{3,5-dimethyl-1-[(3-methylpyridin-2-yl)methyl]-1H-pyrazol-4-yl}-2-(trifluoromethyl)quinoline-4-carboxamide]
  pIC50: 6.60

## Cc1nn(Cc2ccccc2OC(F)(F)F)c(C)c1NC(=O)c1cc(C(F)(F)F)nc2ccc(Br)cc12 [Example 83, 6-bromo-N-{3,5-dimethyl-1-[2-(trifluoromethoxy)benzyl]-1H-pyrazol-4-yl}-2-(trifluoromethyl)quinoline-4-carboxamide]
  pIC50: 6.60

## Cc1ccc2nc(C)cc(C(=O)Nc3c(C)nn(Cc4c(F)cccc4F)c3C)c2c1 [Example 84, N-[1-(2,6-difluorobenzyl)-3,5-dimethyl-1H-pyrazol-4-yl]-2,6-dimethylquinoline-4-carboxamide]
  pIC50: 6.59

## Cc1nn(Cc2ccc(F)cc2)c(C)c1NC(=O)c1cc(C(F)(F)F)nc2c(F)cccc12 [Example 85, 8-fluoro-N-[1-(4-fluorobenzyl)-3,5-dimethyl-1H-pyrazol-4-yl]-2-(trifluoromethyl)quinoline-4-carboxamide]
  pIC50: 6.59

## Cc1cc(C(=O)Nc2c(C)nn(Cc3ccc(F)cc3)c2C)c2cccc(C)c2n1 [Example 86, N-[1-(4-fluorobenzyl)-3,5-dimethyl-1H-pyrazol-4-yl]-2,8-dimethylquinoline-4-carboxamide]
  pIC50: 6.59

## COc1cc(C(=O)Nc2c(C)nn(Cc3cccc(F)c3)c2C)c2ccccc2n1 [Example 87, N-[1-(3-fluorobenzyl)-3,5-dimethyl-1H-pyrazol-4-yl]-2-methoxyquinoline-4-carboxamide]
  pIC50: 6.57

## Cc1nn(Cc2ccc(F)cc2)c(C)c1NC(=O)c1cc(C(F)(F)F)nc2cc(Br)ccc12 [Example 88, 7-bromo-N-[1-(4-fluorobenzyl)-3,5-dimethyl-1H-pyrazol-4-yl]-2-(trifluoromethyl)quinoline-4-carboxamide]
  pIC50: 6.55

## Cc1ccccc1Cn1nc(C)c(NC(=O)c2cc(C(F)(F)F)nc3c(Cl)cc(Cl)cc23)c1C [Example 89, 6,8-dichloro-N-[3,5-dimethyl-1-(2-methylbenzyl)-1H-pyrazol-4-yl]-2-(trifluoromethyl)quinoline-4-carboxamide]
  pIC50: 6.55

## Cc1cc(C(=O)Nc2c(C)nn(Cc3ccc(F)cc3)c2C)c2cc(F)ccc2n1 [Example 90, 6-fluoro-N-[1-(4-fluorobenzyl)-3,5-dimethyl-1H-pyrazol-4-yl]-2-methylquinoline-4-carboxamide]
  pIC50: 6.54

## Cc1nn(Cc2cccc(C#N)c2)c(C)c1NC(=O)c1cc(C(F)(F)F)nc2c(Cl)cc(Cl)cc12 [Example 91, 6,8-dichloro-N-[1-(3-cyanobenzyl)-3,5-dimethyl-1H-pyrazol-4-yl]-2-(trifluoromethyl)quinoline-4-carboxamide]
  pIC50: 6.53

## Cc1ccc2nc(C)cc(C(=O)Nc3c(C)nn(Cc4ccccc4)c3C)c2c1 [Example 92, N-(1-benzyl-3,5-dimethyl-1H-pyrazol-4-yl)-2,6-dimethylquinoline-4-carboxamide]
  pIC50: 6.53

## Cc1nn(Cc2cccc(OC(F)(F)F)c2)c(C)c1NC(=O)c1cc(C(F)(F)F)nc2c(Cl)cc(Cl)cc12 [Example 93, 6,8-dichloro-N-{3,5-dimethyl-1-[3-(trifluoromethoxy)benzyl]-1H-pyrazol-4-yl}-2-(trifluoromethyl)quinoline-4-carboxamide]
  pIC50: 6.53

## Cc1nn(Cc2ccccc2F)c(C)c1NC(=O)c1cc(C(F)(F)F)nc2c(Cl)cc(Cl)cc12 [Example 94, 6,8-dichloro-N-[1-(2-fluorobenzyl)-3,5-dimethyl-1H-pyrazol-4-yl]-2-(trifluoromethyl)quinoline-4-carboxamide]
  pIC50: 6.52

## COc1c(C)nc2ccccc2c1C(=O)Nc1c(C)nn(Cc2ccc(F)cc2)c1C [Example 95, N-[1-(4-fluorobenzyl)-3,5-dimethyl-1H-pyrazol-4-yl]-3-methoxy-2-methylquinoline-4-carboxamide]
  pIC50: 6.51

## Cc1ccc2nc(C)cc(C(=O)Nc3c(C)nn(Cc4ccc(F)cc4F)c3C)c2c1 [Example 96, N-[1-(2,4-difluorobenzyl)-3,5-dimethyl-1H-pyrazol-4-yl]-2,6-dimethylquinoline-4-carboxamide]
  pIC50: 6.46

## COc1cccc(Cn2nc(C)c(NC(=O)c3cc(C(F)(F)F)nc4ccc(Br)cc34)c2C)c1 [Example 97, 6-bromo-N-[1-(3-methoxybenzyl)-3,5-dimethyl-1H-pyrazol-4-yl]-2-(trifluoromethyl)quinoline-4-carboxamide]
  pIC50: 6.45
